“Also recorded” adds a separate entry of the source.
Legend:
[1] = molecular target: SARS-CoV-2-S-RBD–hACE2 PPI (Severe acute respiratory syndrome coronavirus 2, UniProt P0DTC2); format: binding, human; settings: for IC50: read-out: IC50, inhibition of SARS-CoV-2-RBD binding to hACE2
TNF-R1–TNF-α interaction = TNF-R1–TNF-α interaction (Homo sapiens, UniProt P01375+P19438); assay: cell-free ELISA-type counter-assay, inhibition of TNF-R1–TNF-α interaction; format: binding
THP-1 human cells = settings: concentrations of up to 200 μM; ref [61], [62]; cited from earlier work
SARS-CoV = settings: cited from earlier work
[2] = tested on: BacMam-based pseudovirus bearing the SARS-CoV-2 S protein; format: cell-based

Sequence of TNF-R1–TNF-α interaction (P19438 30-211): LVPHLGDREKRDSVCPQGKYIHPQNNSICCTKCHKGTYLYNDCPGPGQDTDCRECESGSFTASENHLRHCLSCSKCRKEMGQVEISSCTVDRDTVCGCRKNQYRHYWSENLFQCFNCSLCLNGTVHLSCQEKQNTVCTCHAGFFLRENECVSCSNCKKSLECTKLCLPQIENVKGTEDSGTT
Sequence of TNF-R1–TNF-α interaction (P01375 85-233): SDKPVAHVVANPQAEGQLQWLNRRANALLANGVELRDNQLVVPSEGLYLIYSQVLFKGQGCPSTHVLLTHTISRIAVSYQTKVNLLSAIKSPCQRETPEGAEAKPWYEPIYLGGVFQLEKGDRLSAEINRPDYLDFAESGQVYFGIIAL

For O=C([O-])c1c(Cl)c(Cl)c(Cl)c(Cl)c1-c1c2cc(I)c(=O)c(I)c-2oc2c(I)c([O-])c(I)cc12.[Na+].[Na+] [rose Bengal], the “activity in screening for inhibitors of SARS-CoV-2 RBD binding” value (“activity in screening for inhibitors” for short) [1] was “strongest activity”.
Nc1c(/N=N/c2ccc(-c3ccc(/N=N/c4cc(S(=O)(=O)O)c5ccccc5c4N)cc3)cc2)cc(S(=O)(=O)O)c2ccccc12 [Congo red] showed an IC50 (TNF-R1–TNF-α interaction) of 6 µM.
In the case of O=C(Nc1ccc(-c2ccc(C(=O)Nc3cccc4cccc(S(=O)(=O)O)c34)cc2)cc1)c1ccc([N+](=O)[O-])cc1 [DRI-C21041], the “effect on viability of THP-1 human cells” value (THP-1 human cells) is given as “did not have significant effects”.
In the case of OC(COc1cccc(OCC(O)CN2CCCCC2)c1)CN1CCCCC1 (stereo not shown) [VE607], the “activities of previously identified candidates” value (SARS-CoV) is listed as 1.6 µM.
With O=C([O-])c1c(Cl)c(Cl)c(Cl)c(Cl)c1-c1c2cc(Br)c(=O)c(Br)c-2oc2c(Br)c([O-])c(Br)cc12.[Na+].[Na+] [phloxine B] the “activity in screening for inhibitors” value [1] was “strongest activity”.
For O=S(=O)([O-])c1ccc(N=Nc2c(O)ccc3cc(S(=O)(=O)[O-])ccc23)cc1.[Na+].[Na+] [sunset yellow FCF], the “inhibitory activity on SARS-CoV-2-RBD–hACE2 binding (in words)” value (from here on “inhibitory activity”) [1] was “no inhibitory activity”.
With CN(C)c1ccc2nc3ccc(=[N+](C)C)cc-3sc2c1 [methylene blue] the “activity in screening for inhibitors” value [1] was “promising inhibitory activity”.
In the case of erythrosine B, the “activity in screening for inhibitors” value [1] is reported as “strongest activity” and the IC50 [1] is reported as 0.4 µM.
With CCOc1ccc(N=Nc2ccc(-c3ccc(N=Nc4c(O)ccc5cc(S(=O)(=O)O)cc(S(=O)(=O)O)c45)c(C)c3)cc2C)cc1 [calcomine scarlet 3B] the IC50 [1] was 4.25 µM.
With CCN(CC)CCCC(C)Nc1ccnc2cc(Cl)ccc12 (stereo not shown) [chloroquine] the “cytotoxicity (MTS)” value (HEK293T cells) was “noticeable cytotoxicity”.
With Cc1ccc(C(=O)Nc2ccc(S(=O)(=O)O)c3cc(S(=O)(=O)O)cc(S(=O)(=O)O)c23)cc1NC(=O)c1cccc(NC(=O)Nc2cccc(C(=O)Nc3cc(C(=O)Nc4ccc(S(=O)(=O)O)c5cc(S(=O)(=O)O)cc(S(=O)(=O)O)c45)ccc3C)c2)c1 [suramin] the “inhibitory activity” value [1] was “neither chloroquine nor suramin showed inhibitory activity; also recorded: no activity”.
With Nc1ccc(N=Nc2ccc(-c3ccc(N=Nc4c(S(=O)(=O)O)cc5cc(S(=O)(=O)O)c(N=Nc6ccccc6)c(O)c5c4N)cc3)cc2)c(N)c1 [chlorazol black] the IC50 [1] was 2.57 µM.
In the case of CCN(CCO)CCCC(C)Nc1ccnc2cc(Cl)ccc12 (stereo not shown) [hydroxychloroquine], the “inhibition of pseudovirus entry (BacMam), in words” value [2] is reported as “did not show any significant inhibition; also recorded: no effect”.
In the case of Nc1c(N=Nc2ccc([N+](=O)[O-])cc2)c(S(=O)(=O)[O-])cc2cc(S(=O)(=O)[O-])c(N=Nc3ccccc3)c(O)c12.[Na+].[Na+] [naphthol blue black], the “inhibitory activity” value [1] is reported as “no inhibitory activity”.
For CN1CCN(c2ccc(CNC(=O)c3ccno3)cc2)CC1 [SSAA09E2], the “activities of previously identified candidates” value (SARS-CoV) is listed as 3.1 µM.

Source: publication PMC8130611 (ACS infectious diseases, 2021)
